Laboratory results: patent US10391095B2, “DNA-PK inhibitors” (Vertex Pharmaceuticals Incorporated, priority 2012, dated 2019)

Target: DNA-PK (Homo sapiens, UniProt P78527)
Assay: DNA-PK inhibition assay (radiometric, 33P-ATP)
Type: biochemical
Conditions: 100 μM ATP, competitive tight-binding fit
Experimental: Compounds were screened for their ability to inhibit DNA-PK kinase using a standard radiometric assay. Briefly, in this kinase assay the transfer of the terminal ^33P-phosphate in ^33P-ATP to a peptide substrate is interrogated. The assay was carried out in 384-well plates to a final volume of 50 μL per well containing approximately 6 nM DNA-PK, 50 mM HEPES (pH 7.5), 10 mM MgCl2, 25 mM NaCl, 0.01% BSA, 1 mM DTT, 10 μg/mL sheared double-stranded DNA (obtained from Sigma), 0.8 mg/mL DNA-PK peptide ([…] obtained from American Peptide), and 100 μM ATP. Accordingly, compounds of the invention were dissolved in DMSO to make 10 mM initial stock solutions. Serial dilutions in DMSO were then made to obtain the final solutions for the assay. A 0.75 μL aliquot of DMSO or inhibitor in DMSO was added to each well, followed by the addition of ATP substrate solution containing ^33P-ATP (obtained from Perkin Elmer). The reaction was started by the addition of DNA-PK, peptide and ds-DNA. After 45 min, the reaction was quenched with 25 μL of 5% phosphoric acid. The reaction mixture was transferred to MultiScreen HTS 384-well PH plates (obtained from Millipore), allowed to bind for one hour, and washed three times with 1% phosphoric acid. Following the addition of 50 μL of Ultima Gold™ high efficiency scintillant (obtained from Perkin Elmer), the samples were counted in a Packard TopCount NXT Microplate Scintillation and Luminescence Counter (Packard BioScience). The Ki values were calculated using Microsoft Excel Solver macros to fit the data to the kinetic model for competitive tight-binding inhibition.

Ki [nM] | SMILES
< 30 | CNC(=O)c1ccnc2c([C@H](C)CNc3cc(-c4ccc(Nc5cnn(CCOC)c5)nc4)ncn3)cccc12 [Compound 737]
< 30 | CNC(=O)c1ccnc2c([C@H](C)CNc3cc(-c4cnc(C#N)c(OC)c4)ncn3)cccc12 [Compound 924]
< 30 | CNC(=O)c1c(F)cnc2c([C@H](C)CNc3cc(-c4cnc(OC)c(CO)c4)ncn3)cccc12 [Compound 884]
< 30 | CNC(=O)c1ccnc2c([C@H](C)CNc3cc(-c4ccc(N5CCN(C(C)C)CC5)nc4)ncn3)cccc12 [Compound 722]
< 30 | Cc1ccc(-c2cc(NC[C@@H](C)c3cccc4c(=O)n(C)cnc34)ncn2)cn1 [Compound 698]
< 30 | CNC(=O)c1ccnc2c([C@H](C)CNc3cc(-c4cnc(O)nc4)ncn3)cccc12 [Compound 768]
< 30 | CNC(=O)c1ccnc2c([C@H](C)CNc3cc(-c4cnc(SC)nc4)ncn3)cccc12 [Compound 800]
< 30 | CNC(=O)c1ccnc2c([C@H](C)CNc3cc(-c4ccc5c(c4)CNCC5)ncn3)cccc12 [Compound 801]
< 30 | CNC(=O)c1ccnc2c([C@H](C)CNc3cc(-c4ccc(CN5CCN(C)CC5)nc4)ncn3)cccc12 [Compound 670]
< 30 | Cc1ccc(-c2cc(NC[C@@H](C)c3cccc4c3OC(CO)C4)ncn2)cn1 (single isomer, unassigned) [Compound 538]
< 30 | CNC(=O)c1ccnc2c([C@H](C)CNc3cc(-c4cnc(C5CCC5)nc4)ncn3)cccc12 [Compound 846]
< 30 | CNC(=O)c1ccnc2c([C@H](C)CNc3cc(-c4ccc(F)nc4)ncn3)ccc(F)c12 [Compound 907]
< 30 | CNC(=O)c1ccnc2c([C@H](C)CNc3cc(-c4ccc(C5(O)COC5)cc4)ncn3)cccc12 [Compound 809]
< 30 | CNC(=O)c1ccnc2c([C@H](C)CNc3cc(-c4ccc5c(c4)OCCN5C)ncn3)cccc12 [Compound 843]
< 30 | CNC(=O)c1ccnc2c([C@H](C)CNc3cc(-c4ccnc(C5CC5)c4)ncn3)cccc12 [Compound 911]
< 30 | CNC(=O)c1ccnc2c([C@H](C)CNc3cc(-c4ccc(C(=O)NCCCN(C)C)cc4)ncn3)cccc12 [Compound 751]
< 30 | CNC(=O)c1c(F)cnc2c([C@H](C)CNc3cc(-c4cnc(C)s4)ncn3)cccc12 [Compound 828]
< 30 | CNC(=O)c1ccnc2c([C@H](C)CNc3cc(-c4ccc(CO)s4)ncn3)cccc12 [Compound 860]
< 30 | CNC(=O)c1ccnc2c([C@H](C)CNc3cc(-c4ccc5c(c4)CCN(C(C)=O)C5)ncn3)cccc12 [Compound 803]

Ki [nM] | SMILES
< 30 | CNC(=O)c1ccnc2c([C@H](C)CNc3cc(-c4ccc(C5CC5)nc4)ncn3)cccc12 [Compound 847]
< 30 | CCNc1ncc(-c2cc(NC[C@@H](C)c3ccc(C(=O)NC)cc3OC)ncn2)cn1 [Compound 585]
< 30 | CNC(=O)c1c(F)cnc2c([C@H](C)CNc3cc(-c4cnn(C)c4)ncn3)cccc12 [Compound 783]
< 30 | CNC(=O)c1ccnc2c([C@H](C)CNc3cc(-c4cncc(S(C)(=O)=O)c4)ncn3)cccc12 [Compound 877]
< 30 | COc1ncc(-c2cc(NC[C@@H](C)c3ccnc4c3OCCO4)ncn2)cc1CO [Compound 550]
< 30 | CC(=O)N1CCOc2c([C@H](C)CNc3cc(-c4cnc(C)nc4)ncn3)cccc21 [Compound 627]
< 30 | CNC(=O)c1ccnc2c([C@H](C)CNc3cc(-c4ccc(C)nc4)ncn3)cc(F)c(F)c12 [Compound 638]
< 30 | CNC(=O)c1ccnc2c([C@H](C)CNc3cc(-c4ccc(N(C)CC5CC5)nc4)ncn3)cccc12 [Compound 625]
< 30 | CNC(=O)c1ccnc2c([C@H](C)CNc3cc(-c4ccc(N5CCCC5)nc4)ncn3)cccc12 [Compound 723]
< 30 | CNC(=O)c1ccnc2c([C@H](C)CNc3cc(-c4cnc(NC(C)C)nc4)ncn3)cccc12 [Compound 618]
< 30 | CNC(=O)c1ccnc2c([C@H](C)CNc3cc(-c4ccc(N5CCOCC5)cc4)ncn3)cccc12 [Compound 678]
< 30 | CNC(=O)c1ccnc2c([C@H](C)CNc3cc(-c4cnc(N5CCOCC5)c(C#N)c4)ncn3)cccc12 [Compound 946]
< 30 | CNC(=O)c1ccnc2c([C@H](C)CNc3cc(-c4ccnc(C5CCC5)c4)ncn3)cccc12 [Compound 913]
< 30 | CNC(=O)c1ccnc2c([C@H](C)CNc3cc(-c4cnc(NC)nc4)ncn3)cccc12 [Compound 579]
< 30 | CNC(=O)c1ccnc2c([C@H](C)CNc3cc(-c4ccc(NCCN5CCNC5=O)nc4)ncn3)cccc12 [Compound 719]
< 30 | CCOc1ccc(-c2cc(NC[C@@H](C)c3cccc4c(C(=O)NC)c(F)cnc34)ncn2)cn1 [Compound 932]
< 30 | CNC(=O)c1c(F)cnc2c([C@H](C)CNc3cc(-c4cnc(C(C)(C)OC)nc4)ncn3)cccc12 [Compound 930]
< 30 | Cc1ccc(-c2cc(NC[C@@H](C)c3cccc4c(C(=O)NCC(F)F)ccnc34)ncn2)cn1 [Compound 569]

Continued, molecule first:

SMILES | Ki [nM]
COc1cc(Br)ccc1C(C)CNc1cc(-c2ccc(C)nc2)ncn1 (stereo not drawn) [Compound 423] | < 30
Cc1ccc(-c2cc(NCCc3cccc4c3OCC4)ncn2)cn1 [Compound 60] | < 30
Cc1ccc(-c2cc(NCC(C)c3cncc4c3OCCC4)ncn2)cn1 (stereo not drawn) [Compound 451] | < 30
CNC(=O)c1ccc([C@H](C)CNc2cc(-c3ccc(Nc4nc[nH]n4)nc3)ncn2)c(OC)c1 [Compound 354] | < 30
CNc1ccccc1[C@H](C)CNc1cc(-c2ccc(C(=O)NCCC#N)nc2)ncn1 [Compound 408] | < 30
C[C@H](CNc1cc(-c2cnc3[nH]ncc3c2)ncn1)c1ccnc2c1OCC2 [Compound 437] | < 30
CNCCNc1ccc(-c2cc(NC[C@@H](C)c3ccnc4c3OCC4)ncn2)cn1 [Compound 483] | < 30
C[C@H](CNc1cc(-c2cnc3c(cnn3C)c2)ncn1)c1ccnc2c1OCC2 [Compound 438] | < 30
C[C@H](CNc1cc(-c2cnc3c(cnn3C3COC3)c2)ncn1)c1ccnc2c1OCC2 [Compound 417] | < 30
CCOc1ccccc1CCNc1cc(-c2ccc(N3CCN(CCO)CC3)nc2)ncn1 [Compound 94] | < 30
CNC(=O)c1ccc([C@H](C)CNc2cc(-c3ccc4c(ccn4C)c3)ncn2)c(OC)c1 [Compound 268] | < 30
CCOc1cc(F)ccc1C(C)CNc1cc(-c2ccc(C)nc2)ncn1 (stereo not drawn) [Compound 100] | < 30
CC(=O)N1CCN(c2ccc(-c3cc(NCC(C)c4ccccc4O)ncn3)cn2)CC1 (stereo not drawn) [Compound 136] | < 30
CC(CNc1cc(-c2cnc3c(cnn3CCO)c2)ncn1)c1csc2cccnc12 (stereo not drawn) [Compound 399] | < 30
COc1ccccc1[C@H](C)CNc1cc(-c2ccc(NCCO)nc2)ncn1 [Compound 118] | < 30
COc1ccccc1[C@H](C)CNc1cc(-c2ccnc(NCC(O)CO)c2)ncn1 (single isomer, unassigned) [Compound 208] | < 30

SMILES | Ki [nM]
CNC(=O)c1cc(C)nc2c([C@H](C)CNc3cc(-c4ccc(C)nc4)ncn3)cccc12 [Compound 484] | < 30
COc1sccc1C(C)CNc1cc(-c2cnc3c(cnn3CC3CC3)c2)ncn1 (stereo not drawn) [Compound 266] | < 30
C[C@H](CNc1cc(-c2ccc(N3CCN(C)CC3)nc2)ncn1)c1ccccc1OC1CC1 [Compound 114] | < 30
COc1cc(SC)ccc1C(C)CNc1cc(-c2ccc(N3CCN(C(C)=O)CC3)nc2)ncn1 (stereo not drawn) [Compound 73] | < 30
Cc1ccc(-c2cc(NCC(C)c3ccccc3OCC3CCCC3)ncn2)cn1 (stereo not drawn) [Compound 194] | < 30
C[C@H](CNc1cc(-c2cnc3c(cnn3C3COC3)c2)ncn1)c1ccnc2c1OCCO2 [Compound 493] | < 30
CCOc1ccccc1C(C)CNc1cc(-c2ccc(N3CCN(C)CC3)nc2)ncn1 (stereo not drawn) [Compound 92] | < 30
C[C@H](CNc1cc(-c2ccc(N3CCN(C)CC3)nc2)ncn1)c1cccc2c1OCC2 [Compound 132] | < 30
COc1cc(C(=O)Nc2ccccc2)ccc1C(C)CNc1cc(-c2ccc(C)nc2)ncn1 (stereo not drawn) [Compound 377] | < 30
COCc1ccc(-c2cc(NC[C@@H](C)c3ccnc4c3OCCO4)ncn2)cc1 [Compound 458] | < 30
COCCn1ncc2cc(-c3cc(NCC(C)c4ccsc4OC)ncn3)cnc21 (stereo not drawn) [Compound 258] | < 30
COc1cc(N)ncc1C(C)CNc1cc(-c2ccc(N3CCN(C(C)=O)CC3)nc2)ncn1 (stereo not drawn) [Compound 345] | < 30
COc1ccccc1[C@H](C)CNc1cc(-c2ccc3ncccc3c2)ncn1 [Compound 80] | < 30
CNC(=O)c1ccc(C(C)CNc2cc(-c3ccc(C4(CO)CC4)cc3)ncn2)c(OC)c1 (stereo not drawn) [Compound 338] | < 30
COCCn1ccc2cc(-c3cc(NCCc4ccccc4OC)ncn3)cnc21 [Compound 38] | < 30
CNC(=O)c1ccc([C@H](C)CNc2cc(-c3ccc(NCCCO)nc3)ncn2)c(OC)c1 [Compound 355] | < 30
